Starred links: 1 amine or outer side, 2 acyl side, 3 side chain; linkers in the order of their positions; H or OH if unused. Non-standard residues stand in square brackets, D forms with d. Residues, ends and D or L forms follow the SMILES beside them. Groups on a side chain read outwards from the residue. *: point of attachment. γGlu = O=C(O)[C@H](CCC(=O)[*:2])N[*:1]; X1 = CC(C(=O)*)c1ccc(-c2ccccc2)c(F)c1
Tests used:
ovalbumin (OVA) = biological target: T1, ovalbumin (OVA) (Gallus gallus, UniProt P01012); test: Microscale thermophoresis (MST) binding to OVA; details: Monolith NT.115, NT-647-labelled protein, PBS with 0.05% Tween-20, pH 7.4, Comp. 0.25 μM to 10 mM
T1 construct: purchased InvivoGen
T1 sequence (P01012 1-386): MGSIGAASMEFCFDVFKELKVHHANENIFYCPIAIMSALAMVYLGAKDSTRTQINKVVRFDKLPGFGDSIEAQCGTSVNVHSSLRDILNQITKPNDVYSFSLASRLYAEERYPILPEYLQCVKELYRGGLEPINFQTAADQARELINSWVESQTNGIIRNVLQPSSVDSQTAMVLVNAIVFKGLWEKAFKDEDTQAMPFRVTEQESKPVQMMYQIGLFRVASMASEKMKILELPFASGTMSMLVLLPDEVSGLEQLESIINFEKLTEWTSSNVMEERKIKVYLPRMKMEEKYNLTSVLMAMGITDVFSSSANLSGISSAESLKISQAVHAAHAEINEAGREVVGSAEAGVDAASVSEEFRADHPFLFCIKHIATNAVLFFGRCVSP
Text: For the interaction experiments of fluorescent-proteins with Comp. […] 1 or 2 at 1:1 volume ratio.

[1] = Antigen release assay (OVA release from hydrogel); type: physicochemical; details: physically encapsulated OVA, 0.2 wt% gel, 150 μL, 30 μg OVA-RBITC, PBS pH 7.4, 37 °C, absorbance 560 nm
Experimental: The released profiles of OVA-RBITC from Vac-1 and Vac-2 in vitro were studied at 37 °C. 150 μL of Vac-1 or Vac-2 (0.2 wt%) containing 30 μg of OVA-RBITC was used for the measurement. 150 μL PBS solution (pH = 7.4) was firstly added on top of the gel, 100 μL of solution was taken out at the desired time point and 100 μL of fresh PBS solutions was added back. The absorbance of OVA-RBITC was determined at 560 nm by a microplate reader (BioTek Synergy 4) to calculate the cumulative release rate of OVA-RBITC from hydrogel vaccines.

[2] = Dissolution and protein-induced hydrogelation / gel stability; type: physicochemical; details: coassembled hydrogel with OVA, room temperature (20-25 °C)
Experimental: 2.5 mg of compounds were dispersed in endotoxin-free PBS buffer solution (pH = 7.4) at a final concentration of 0.5 wt% with sodium carbonate to adjust the final pH to 7.4. Proteins were dispersed in endotoxin-free PBS buffer solution (pH = 7.4) at a final concentration of 10 μg/μL. The proteins were then evenly dispersed in the hydrogel by vortexing. The mixtures were maintained at 37°C for half hour and hydrogel then formed. The final concentration of the protein in the hydrogel was 500 μg/mL.
We then tested the coassembly property of Comp. 1 with the model protein antigen ovalbumin (OVA). Comp. […] After adding OVA to the solution (final protein concentration = 0.05 wt%), we observed rapid hydrogelation within 10 minutes (Figure 1C). The resulting hydrogel was stable for more than 3 months at room temperature (20-25 °C). The maximum proportion of the nanofibers composed of OVA was 50% for Comp. 1 (Figure S5 and S6).

splenocytes = details: 80 µg/mL
[3] = test system: Raw 264.7 mouse macrophages; details: 80 µg/mL

Row | Compound | binding affinity for OVA, in words (ovalbumin (OVA)) | cumulative OVA release within 16 hours [1] | stability of the resulting hydrogel [2] | cell viability, splenocytes (splenocytes) | cell viability, Raw 264.7 [3]
1 | Fbp-G^DF^DF^DY [Comp. 2] | no measurable binding affinity | ~100% | – | – | –
2 | CC(C(=O)NCC(=O)N[C@H](Cc1ccccc1)C(=O)N[C@H](Cc1ccccc1)C(=O)N[C@H](Cc1ccc(O)cc1)C(=O)N[C@H](CCCCNC(=O)CC[C@H](NC(=O)CC[C@H](N)C(=O)O)C(=O)O)C(N)=O)c1ccc(-c2ccccc2)c(F)c1 (some centres unmarked) [Comp. 1, Fbp-G^DF^DF^DY^DK(γE)2-NH2] (X1-G[dF][dF][dY][dK]([γGlu-γGlu])-NH2) | – | – | more than 3 months | did not remarkably reduce the cell viability | did not remarkably reduce the cell viability

Reference: paper PMC6929975, “A supramolecular protein chaperone for vaccine delivery” (Theranostics, 2020)
